Data taken from US20230066946A1, “1,5-DIPHENYLPYRAZOLYL-3-OXYALKYL ACIDS AND 1-PHENYL-5-THIENYLPYRAZOLYL-3-OXYALKYL ACIDS AND THE USE THEREOF FOR CONTROL OF UNWANTED PLANT GROWTH” (Bayer Aktiengesellschaft, priority 2019, published 2023).

Experiments:
[1] = test system: SETVI; assay: Pre-emergence herbicidal action against SETVI; assay type: in vivo, Setaria viridis; conditions: 1280 g/ha, scored visually after about 3 weeks vs untreated controls
Procedure, shortened: (§1)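 Pre-emergence, sandy loam, pots doubly sown. WP/EC formulations + 0.5% additive, 600 L/ha water, sprayed on soil surface; 1280 or 320 g/ha. Greenhouse ~3 wk; visual % effect vs untreated.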

[2] = test system: STEME; assay: Pre-emergence herbicidal action against STEME; assay type: in vivo, Stellaria media; conditions: scored visually after about 3 weeks vs untreated controls
Procedure, shortened: as §1

[3] = test system: AMARE; assay: Pre-emergence herbicidal action against AMARE; assay type: in vivo, Amaranthus retroflexus; conditions: scored visually after about 3 weeks vs untreated controls; for Pre-emergence action against AMARE in %: 1280 g/ha; for Pre-emergence action at 320 g/ha against AMARE in %: 100% = plants have died, 0% = like control plants
Procedure, shortened: as §1

[4] = test system: STEME; assay: Post-emergence herbicidal action against STEME; assay type: in vivo, Stellaria media; conditions: visual rating about 3 weeks after treatment
Procedure, shortened: (§2)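 Applied post-emergence at 1280 or 320 g/ha to one-leaf-stage weeds grown in sandy loam, using WP or EC formulations in water (600 litres per hectare, 0.5% additive). Efficacy is scored visually relative to untreated plants about 3 weeks later, 0% meaning no effect and 100% plant death.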

[5] = test system: harmful plants; assay: Pre-emergence herbicidal action, summary of Tables 4.1-4.15; assay type: in vivo; conditions: result in words
Source text: (§3) Seeds of mono- and dicotyledonous weed plants are placed in plastic pots in sandy loam soil (doubly sown with one species each of mono- or dicotyledonous weed plants per pot) and covered with soil. The compounds of the invention, formulated in the form of wettable powders (WP) or as emulsion concentrates (EC), are then applied onto the surface of the covering soil as aqueous suspension or emulsion with addition of 0.5% additive at a water application rate equivalent to 600 litres per hectare. After the treatment, the pots are placed in a greenhouse and kept under good growth conditions for the trial plants. After about 3 weeks, the effect of the preparations is scored visually in comparison with untreated controls as percentages. For example, 100% activity=the plants have died, 0% activity=like control plants.
Tables 4.1-4.15 below show the effects of selected compounds of the general formula (I) according to Tables 1 to 3 on various harmful plants at an application rate corresponding to 1280 or 320 g/ha, which have been obtained by the aforementioned experimental method.
For example, compounds no. I-008, I-056, I-057, I-061, I-067, I-070 and I-072 applied by the pre-emergence method have very good action (80% to 100% herbicidal action) against harmful plants such as Alopecurus myosuroides, Amaranthus retroflexus, Matricaria inodora, Polygonum convolvulus, Setaria viridis and Stellaria media at an application rate of 1.28 kg of active substance or less per hectare.

[6] = test system: ECHCG; assay: Pre-emergence herbicidal action against ECHCG; assay type: in vivo, Echinochloa crus-galli; conditions: scored visually after about 3 weeks vs untreated controls, 100% = plants have died, 0% = like control plants
Procedure, shortened: as §1

[7] = test system: ECHCG; assay: Post-emergence herbicidal action against ECHCG; assay type: in vivo, Echinochloa crus-galli; conditions: 1280 g/ha, post-emergence at one-leaf stage, rated visually after about 3 weeks vs untreated controls
Procedure, shortened: as §2

[8] = test system: VERPE; assay: Pre-emergence herbicidal action against VERPE; assay type: in vivo, Veronica persica; conditions: 320 g/ha, scored visually after about 3 weeks vs untreated controls
Source text: as §3, with “control plants. [table] Tables 4.1-4.15 below show the effects of selected compounds of the general formula (I) according to Tables 1 to 3 on various harmful plants at an application rate corresponding to 1280 or 320 g/ha, which have been obtained by the aforementioned experimental method.” for “control plants.”

[9] = test system: VERPE; assay: Post-emergence herbicidal action against VERPE; assay type: in vivo, Veronica persica; conditions: 320 g/ha, visual rating about 3 weeks after treatment
Protocol: (§4) [table] Seeds of mono- and dicotyledonous weed plants are placed in plastic pots in sandy loam soil (twin sowing with one species each of mono- or dicotyledonous weed plants per pot), covered with soil and cultivated in a greenhouse under controlled growth conditions. 2 to 3 weeks after sowing, the test plants are treated at the one-leaf stage. The compounds of the invention, formulated in the form of wettable powders (WP) or as emulsion concentrates (EC), are applied to the green parts of the plants as aqueous suspension or emulsion with addition of 0.5% additive at a water application rate equivalent to 600 litres per hectare. After the test plants have been kept in the greenhouse under optimum growth conditions for about 3 weeks, the activity of the preparations is rated visually in comparison to untreated controls. For example, 100% activity=the plants have died, 0% activity=like control plants. Tables 5.1-5.16 below show the effects of selected compounds of the general formula (I) according to Tables 1 to 3 on various harmful plants at an application rate corresponding to 1280 or 320 g/ha, which have been obtained by the aforementioned experimental method.

[10] = test system: SETVI; assay: Post-emergence herbicidal action against SETVI; assay type: in vivo, Setaria viridis; conditions: 1280 g/ha, post-emergence at one-leaf stage, rated visually after about 3 weeks vs untreated controls
Procedure, shortened: as §2

[11] = test system: AMARE; assay: Post-emergence herbicidal action against AMARE; assay type: in vivo, Amaranthus retroflexus; conditions: visual rating about 3 weeks after treatment
Procedure, shortened: as §2

[12] = test system: POLCO; assay: Pre-emergence herbicidal action against POLCO; assay type: in vivo, Polygonum convolvulus; conditions: 320 g/ha, scored visually after about 3 weeks vs untreated controls
Source text: as §3, with “control plants. [table] Tables 4.1-4.15 below show the effects of selected compounds of the general formula (I) according to Tables 1 to 3 on various harmful plants at an application rate corresponding to 1280 or 320 g/ha, which have been obtained by the aforementioned experimental method.” for “control plants.”

[13] = test system: PHBPU; assay: Post-emergence herbicidal action against PHBPU; assay type: in vivo, Pharbitis purpurea; conditions: 320 g/ha, visual rating about 3 weeks after treatment
Protocol: as §4

[14] = test system: MATIN; assay: Post-emergence herbicidal action against MATIN; assay type: in vivo, Matricaria inodora; conditions: 1280 g/ha, visual rating about 3 weeks after treatment
Procedure, shortened: as §2

[15] = test system: MATIN; assay: Pre-emergence herbicidal action against MATIN; assay type: in vivo, Matricaria inodora; conditions: 1280 g/ha, scored visually after about 3 weeks vs untreated controls
Source text: as §3, with “control plants. [table] Tables 4.1-4.15 below show the effects of selected compounds of the general formula (I) according to Tables 1 to 3 on various harmful plants at an application rate corresponding to 1280 or 320 g/ha, which have been obtained by the aforementioned experimental method.” for “control plants.”

[16] = test system: VIOTR; assay: Post-emergence herbicidal action against VIOTR; assay type: in vivo, Viola tricolor; conditions: 320 g/ha, visual rating about 3 weeks after treatment
Protocol: as §4

SMILES	Pre-emergence action against SETVI in % [1] [%]	Pre-emergence action against STEME in % ([2]; 1280 g/ha) [%]	Pre-emergence action against AMARE in % [3] [%]	Post-emergence action against STEME in % ([4]; 1280 g/ha) [%]	herbicidal efficacy against harmful plants in the case of pre-emergence treatment [5]	Pre-emergence action at 1280 g/ha against ECHCG in % [6] [%]	Post-emergence action against ECHCG in % [7] [%]	Pre-emergence action against VERPE in % [8] [%]	Post-emergence action against VERPE in % [9] [%]	Post-emergence action against SETVI in % [10] [%]	Pre-emergence action against STEME in % ([2]; 320 g/ha) [%]	Pre-emergence action at 320 g/ha against AMARE in % [3] [%]	Post-emergence action against AMARE in % ([11]; 320 g/ha) [%]	Post-emergence action against AMARE in % ([11]; 1280 g/ha) [%]	Pre-emergence action against POLCO in % [12] [%]	Post-emergence action against PHBPU in % [13] [%]	Post-emergence action against MATIN in % [14] [%]	Pre-emergence action against MATIN in % [15] [%]	Post-emergence action against STEME in % ([4]; 320 g/ha) [%]	Post-emergence action against VIOTR in % [16] [%]
CC(Oc1nn(-c2ccccc2)c(-c2ccc(F)cc2)c1Br)C(=O)O (stereo not shown) [I-138, 2-{[4-Bromo-5-(4-fluorophenyl)-1-phenyl-1H-pyrazol-3-yl]oxy}propanoic acid]	100	100	100	100	good herbicidal efficacy	100														
C=CCNC(=O)COc1nn(-c2ccccc2F)c(-c2ccccc2)c1Br [III-003]	100	100	100		good herbicidal efficacy	100	100	100	80	100	100	100	80	100	100	80				
NCc1ccccc1.O=C(O)COc1nn(-c2cccc(F)c2)c(-c2ccccc2)c1I [II-13]		90	100		good herbicidal efficacy												100			
COC(=O)COc1nn(-c2cccc(F)c2)c(-c2ccccc2)c1C#N [I-023]			90	80				90				90		80		80	80	100	80	80
COC(=O)COc1nn(-c2cccc(F)c2)c(-c2ccccc2)c1Cl [I-016]		80	100	80			80			80				80		80		90		
O=C(O)COc1nn(-c2ccc(F)cc2)c(-c2cccc(F)c2)c1[N+](=O)[O-] [I-121]	100	100	90	100	good herbicidal efficacy	100											90			
COC(=O)COc1nn(-c2ccc(Cl)cc2)c(-c2cccc(F)c2)c1C#N [I-048]									80									80		
C=CCNC(=O)COc1nn(-c2ccccc2F)c(-c2ccc(F)c(F)c2)c1Br [III-053]	100	100	90	100	good herbicidal efficacy	100	100			100							90			
COC(=O)COc1nn(-c2cccc(Cl)c2)c(-c2ccc(F)c(F)c2)c1Cl [I-026]			80											80		90		90		80
C=CCNC(=O)COc1nn(-c2ccc(F)cc2)c(-c2cccc(F)c2)c1Cl [III-022]	100	100	90	100	good herbicidal efficacy	100	90			100				90						
COC(=O)CNC(=O)COc1nn(-c2ccc(F)cc2)c(-c2cccc(F)c2)c1Cl [III-027]	90	100	100	90	good herbicidal efficacy	100	90			100				90			100			
